Source: paper PMC4058377 (Neurochemistry international, 2014)

Legend:
X7C DAT [1] = molecular target: T1, X7C DAT (Homo sapiens, UniProt Q01959, C135A/C306A/C319M/C342M/C581L/C90A); experiment: [3H]MFZ 2-12 binding, membranes
T1 sequence (Q01959 23-620 C90A/C135A/C306A/C319M/C342M/C581L): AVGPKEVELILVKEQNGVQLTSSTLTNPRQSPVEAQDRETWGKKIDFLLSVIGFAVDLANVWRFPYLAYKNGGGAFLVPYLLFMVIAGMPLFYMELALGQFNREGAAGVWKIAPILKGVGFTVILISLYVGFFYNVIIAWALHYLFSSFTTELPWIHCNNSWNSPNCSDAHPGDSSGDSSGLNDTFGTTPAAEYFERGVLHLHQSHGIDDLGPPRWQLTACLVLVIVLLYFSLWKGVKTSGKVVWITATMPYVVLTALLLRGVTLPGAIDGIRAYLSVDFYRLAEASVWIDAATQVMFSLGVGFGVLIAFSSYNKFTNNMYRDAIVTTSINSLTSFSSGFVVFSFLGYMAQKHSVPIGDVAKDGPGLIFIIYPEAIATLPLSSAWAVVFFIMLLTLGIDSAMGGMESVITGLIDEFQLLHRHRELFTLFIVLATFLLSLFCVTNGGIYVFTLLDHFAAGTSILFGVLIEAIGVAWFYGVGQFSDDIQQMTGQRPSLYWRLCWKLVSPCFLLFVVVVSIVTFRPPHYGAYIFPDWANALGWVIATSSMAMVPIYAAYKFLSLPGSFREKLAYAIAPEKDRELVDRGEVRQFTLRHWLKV

DAT Tyr335 to alanine = details: ref Loland et al., 2002; cited from earlier work
[2] = molecular target: T2, all the remaining mutants as well as the background construct X7C (Homo sapiens, UniProt Q01959, C135A/C306A/C319M/C342M/C581L/C90A); experiment: Effect of Zn2+ on [3H]tyramine uptake; format: cell-based; details: 10 μM Zn^2+, 15 min prior to and during uptake
T2 sequence (Q01959 23-620 C90A/C135A/C306A/C319M/C342M/C581L): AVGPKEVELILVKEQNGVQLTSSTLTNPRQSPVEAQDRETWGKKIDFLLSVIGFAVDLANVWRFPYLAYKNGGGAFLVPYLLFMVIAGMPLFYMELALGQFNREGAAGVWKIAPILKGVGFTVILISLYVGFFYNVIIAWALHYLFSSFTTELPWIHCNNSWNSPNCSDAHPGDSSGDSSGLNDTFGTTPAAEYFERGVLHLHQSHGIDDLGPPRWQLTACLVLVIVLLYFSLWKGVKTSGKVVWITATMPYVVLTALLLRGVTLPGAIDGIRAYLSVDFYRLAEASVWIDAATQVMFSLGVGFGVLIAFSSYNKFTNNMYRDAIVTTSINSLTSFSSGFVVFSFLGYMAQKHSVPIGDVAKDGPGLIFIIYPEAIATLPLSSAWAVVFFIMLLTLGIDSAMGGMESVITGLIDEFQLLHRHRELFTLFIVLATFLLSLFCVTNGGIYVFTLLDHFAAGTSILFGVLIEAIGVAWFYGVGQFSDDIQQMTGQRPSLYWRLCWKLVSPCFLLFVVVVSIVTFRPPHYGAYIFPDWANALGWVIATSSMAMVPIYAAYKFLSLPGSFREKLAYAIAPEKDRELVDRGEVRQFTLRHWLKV

WT DAT = details: ref Loland et al., 1999, Norregaard et al., 1998; cited from earlier work
X7C DAT [3] = molecular target: T1, X7C DAT
[4] = substrate: NCCc1ccc(O)cc1; experiment: cells, lysate or membranes; details: other: X7C; pH 7.4; 37.0 °C

COC(=O)[C@H]1[C@@H](c2ccc(Cl)c(Cl)c2)C[C@@H]2CC[C@H]1N2C [MFZ 2-12]
MFZ 2-12 Bmax ± SEM (X7C DAT [1]): 5 ± 2 pmol/mg | Kd (X7C DAT [1]; read-out: MFZ 2-12 KD ± SEM): 2.2 ± 0.5 nM

[Cl-].[Cl-].[Zn+2] [Zn^2+, ZnCl2]
effect of Zn^2+ on low uptake capacity (DAT Tyr335 to alanine): substantially restored | effect of Zn^2+ on tyramine uptake [2]: inhibited uptake | effect of Zn^2+ on dopamine uptake (WT DAT): inhibits

NCCc1ccc(O)cc1 [tyramine]
Vmax for tyramine uptake (X7C DAT [3]): 29 ±8

B1: X7C DAT (Homo sapiens; C135A/C306A/C319M/C342M/C581L/C90A) (protein)
chain: AVGPKEVELILVKEQNGVQLTSSTLTNPRQSPVEAQDRETWGKKIDFLLSVIGFAVDLANVWRFPYLAYKNGGGAFLVPYLLFMVIAGMPLFYMELALGQFNREGAAGVWKIAPILKGVGFTVILISLYVGFFYNVIIAWALHYLFSSFTTELPWIHCNNSWNSPNCSDAHPGDSSGDSSGLNDTFGTTPAAEYFERGVLHLHQSHGIDDLGPPRWQLTACLVLVIVLLYFSLWKGVKTSGKVVWITATMPYVVLTALLLRGVTLPGAIDGIRAYLSVDFYRLAEASVWIDAATQVMFSLGVGFGVLIAFSSYNKFTNNMYRDAIVTTSINSLTSFSSGFVVFSFLGYMAQKHSVPIGDVAKDGPGLIFIIYPEAIATLPLSSAWAVVFFIMLLTLGIDSAMGGMESVITGLIDEFQLLHRHRELFTLFIVLATFLLSLFCVTNGGIYVFTLLDHFAAGTSILFGVLIEAIGVAWFYGVGQFSDDIQQMTGQRPSLYWRLCWKLVSPCFLLFVVVVSIVTFRPPHYGAYIFPDWANALGWVIATSSMAMVPIYAAYKFLSLPGSFREKLAYAIAPEKDRELVDRGEVRQFTLRHWLKV
Km [4]: 2.6 µM
